Data on one compound can be found in ChEMBL document CHEMBL1142595, “Spirolides isolated from Danish strains of the toxigenic dinoflagellate Alexandrium ostenfeldii” (J Nat Prod, 2006).

The test system of this data set is Mus musculus. Kind of data set: Toxicity in ip dosed mouse. It counts as organism-based. To be noted: in vivo.

Each structure is given as a SMILES string.

`C=C1CCCC2=NCC(C)C(C)CC23CCC(C2C=C(C)C(=O)O2)=C(C)C3/C=C(\C)C(O)CC2CCC3(CCC4(OC(CCC4O)C1)O3)O2` (stereo unspecified) displayed an MLD of 0.03 mg/kg.
